According to ChEMBL document CHEMBL5236626, “Synthesis and pharmacokinetic properties of novel cPLA2α inhibitors with 1-(carboxyalkylpyrrolyl)-3-aryloxypropan-2-one structure” (Bioorg Med Chem, 2023):
Values after ≈ are worked out from the molar mass of the structure shown.

What was measured:
[1] = Kinetic solubility of compound in PBS at pH 7.4 incubated for 24 hrs by HPLC-UV analysis; assay type: physicochemical; conditions: read-out: Kinetic_solubility
[2] = Metabolic stability in rat liver S9 fraction assessed as parent compound remaining at 20 uM incubated for 30 mins in presence of NADPH by HPLC-MS analysis; assay type: ADME, subcellular; conditions: read-out: Stability
[3] = Metabolic stability in rat liver S9 fraction assessed as parent compound remaining at 5 uM incubated for 30 mins in presence of UDPGA by HPLC-MS analysis; assay type: ADME, subcellular; conditions: read-out: Stability
[4] = Partition coefficient,logP of compound by reversed-phase HPLC analysis; assay type: physicochemical; conditions: octanol/water
[5] = Inhibition of porcine cytosolic phospholipase A2 alpha using SAPC and 2-dioleoyl-sn-glycerol as substrate incubated for 60 mins by HPLC-UV analysis; design: species or system Sus scrofa
[6] = Permeability across apical to basolateral side in human Caco-2 cells at 10 uM incubated for 2 hrs by HPLC-MS analysis; assay type: ADME, cell-based; conditions: caco-2, 2 h
[7] = Drug concentration in C57Bl/6 mouse plasma at 30 mg/kg,po observed after 2 hrs by HPLC-MS analysis; assay type: ADME, organism-based
[8] = Thermodynamic solubility of the compound in PBS at pH 7.4 incubated for 20 hrs by HPLC-UV analysis; assay type: physicochemical; conditions: read-out: Therm_solubility
[9] = Apparent permeability across apical to basolateral side in human Caco-2 cells at 10 uM incubated for 2 hrs by HPLC-MS analysis; assay type: ADME, cell-based
[10] = organism: Sus scrofa; assay: Inhibition of porcine cytosolic phospholipase A2 alpha using SAPC and 2-dioleoyl-sn-glycerol as substrate at 10 uM incubated for 60 mins by HPLC-UV analysis

Compound | remaining at 0.5 h, 20 µM [2] [%] | remaining at 0.5 h, 5 µM [3] [%] | logP [4] | IC50 [5] [nM] | other results
CCCCCCCCc1ccc(OCC(=O)Cn2cc(C(=O)C(C)C)cc2CCC(=O)O)cc1 | 60 | > 90 | – | 460 | permeability [6]: Impermeable; solubility kinetic at 24 h [1]: ≥ 250 µg/mL; concentration at 2 h [7]: 220 ng/mL; solubility thermodynamic at 20 h [8]: 394 µg/mL (≈ 839 µM)
CC(C)C(=O)c1cn(CC(=O)COc2ccc3c(ccn3-c3ccc(F)cc3)c2)cc1CCC(=O)O | < 5 | > 90 | 3.3 | 310 | –
COc1ccc2c(c1)c(CC(=O)O)c(C)n2C(=O)c1ccc(Cl)cc1 [INDOMETHACIN] | – | – | – | – | Papp A→B at 2 h, 10 µM [9]: 18 ×10⁻⁶ cm/s
CCCCCCCCc1ccc(OCC(=O)Cn2c(C)c(CCC(=O)O)c(C(=O)C(C)C)c2C)cc1 | 39 | > 90 | – | > 10000 | inhibition [10]: 45%
COc1cccc2c1C(=O)c1c(O)c3c(c(O)c1C2=O)C[C@@](O)(C(C)=O)C[C@@H]3O[C@H]1C[C@H](N)[C@H](O)[C@H](C)O1 [DAUNORUBICIN] | 28 | 32 | – | – | –
CC(C)C(=O)c1cn(CC(=O)COc2ccc(Oc3ccccc3)cc2)c2ccc(C(=O)O)cc12 | – | – | – | 12 | –
CC(C)C(=O)c1cn(CC(=O)COc2ccc(-c3ccc(C(F)(F)F)cc3)cc2)cc1CCC(=O)O | 34 | > 90 | 4 | 170 | –
CCCCCCCCc1ccc(OCC(=O)Cn2cc(C(=O)C(C)C)cc2CCCC(=O)O)cc1 | 59 | > 90 | – | 650 | –
CCCCCCCCc1ccc(OCC(=O)Cn2cc(CCCC(=O)O)c(C(=O)C(C)C)c2)cc1 | 25 | > 90 | – | 450 | –
CCCCCCCCc1ccc(OCC(O)Cn2cc(CCC(=O)O)c(C(=O)C(C)C)c2)cc1 (stereo not drawn) | – | – | – | – | permeability [6]: Permeable; concentration at 2 h [7]: 50 ng/mL

Second part, led by results:

remaining at 0.5 h, 20 µM [2] [%] | remaining at 0.5 h, 5 µM [3] [%] | logP [4] | IC50 [5] [nM] | Compound | other results
54 | > 90 | 6.3 | 53 | CCCCCCCCc1ccc(OCC(=O)Cn2cc(CCC(=O)O)c(C(=O)C(C)C)c2)cc1 | solubility kinetic at 24 h [1]: 174 µg/mL (≈ 371 µM)
15 | > 90 | 3.3 | 32 | Cc1noc(-c2cn(CC(=O)C(C)Oc3ccc(Oc4ccc(F)cc4)cc3)cc2CCC(=O)O)n1 (stereo not drawn) | –
< 5 | > 90 | 4 | 82 | CC(C)C(=O)c1cn(CC(=O)COc2ccc(Oc3ccc(C(F)(F)F)cc3)cc2)cc1CCC(=O)O | –
34 | > 90 | 5.9 | 1 | CCCCCCCCc1ccc(OCC(=O)Cn2cc(CCC(=O)O)c(-c3nc(C)no3)c2)cc1 | –
25 | > 90 | – | 40 | CCCCCCCCc1ccc(OCC(=O)Cn2cc(CC(=O)O)c(C(=O)C(C)C)c2)cc1 | –
62 | > 90 | 6.5 | 13 | CCCCCCCCc1ccc(OC(C)C(=O)Cn2cc(CCC(=O)O)c(-c3nc(C)no3)c2)cc1 (stereo not drawn) | solubility kinetic at 24 h [1]: 10 µg/mL (≈ 20.2 µM)
20 | > 90 | 5.6 | 51 | CC(C)C(=O)c1cn(CC(=O)COc2ccc(C34CC5CC(CC(C5)C3)C4)cc2)cc1CCC(=O)O | –
– | – | – | 10 | CCCCCCCCc1ccc(OCC(=O)Cn2cc(C(=O)C(C)C)c3cc(C(=O)O)ccc32)cc1 | –
30 | < 5 | – | 15 | CCCCCCCCc1ccc(OCC(=O)Cn2cc(-c3nc(C)no3)c3cc(C(=O)O)ccc32)cc1 | –
30 | > 90 | 4.1 | 16 | Cc1noc(-c2cn(CC(=O)C(C)Oc3ccc(Oc4ccc(C(F)(F)F)cc4)cc3)cc2CCC(=O)O)n1 (stereo not drawn) | permeability [6]: Permeable
21 | > 90 | 3.9 | 38 | Cc1noc(-c2cn(CC(=O)C(C)Oc3ccc(Oc4ccc(Cl)cc4)cc3)cc2CCC(=O)O)n1 (stereo not drawn) | –
– | – | – | 6.5 | CCCCCCCCCCOc1ccc(OCC(=O)COc2ccc(C(=O)O)cc2)cc1 | –
43 | > 90 | 6.1 | 1 | CCCCCCCCc1ccc(OCC(=O)C(C)n2cc(CCC(=O)O)c(-c3nc(C)no3)c2)cc1 (stereo not drawn) | –
